Results: patent publication US20120129787A1, “Modified oligopeptides with anticancer properties and methods of obtaining them” (priority 2010, published 2012)

Columns and labels:
HeLa cells = assay: Effect of MPs on HeLa cells: number of surviving cells versus concentration; assay type: cell-based
From the text: In establishing the minimum concentration of MPs that will slow the growth of cells, a comparison was made between the number of surviving cells and the concentration of MPs in the solution.

benzidine skin sarcoma = assay: Anti-cancer activity on benzidine skin sarcoma in Barbados mice; assay type: in vivo; conditions: mice with benzidine sarcoma
Procedure: Study of the Anti-Cancer Activity of Anticanum on Benzidine Sarcoma. Before applying it to the silica gel, 7 ml of a solution of 2% benzidine and 0.9% sodium chloride was added until an opalescent suspension was formed (1 g silica gel for 5 ml NaCl solution). Twenty-five Barbados mice of both sexes with a weight of 18-20 g that were kept on a vivarium diet were administered benzidine and phorbol acetate immobilized on silica gel subcutaneously near the neck every three days. After two weeks, 18 animals had developed tumors of different sizes in the form of a small bump on the neck near the silica gel granulomas. Each group of animals was administered the corresponding compound parenterally at a dose of 100 mcg/kg weight twice a day for two weeks, beginning at 16 days after administration of the carcinogen.

CC(=O)O[C@@]12CO[C@@H]1C[C@H](O)[C@@]1(C)C(=O)[C@H](O)C3=C(C)[C@@H](OC(=O)[C@H](O)[C@@H](NC(=O)OC(C)(C)C)c4ccccc4)C[C@@](O)([C@@H](OC(=O)c4ccccc4)[C@H]21)C3(C)C [Taxotere]
Number of live cells after incubation, % (HeLa cells; dose 20 mcg/ml): 93% | Number of live cells after incubation, % (HeLa cells; dose 40 mcg/ml): 91% | Number of live cells after incubation, % (HeLa cells; dose 60 mcg/ml): 0.12% | Number of live cells after incubation, % (HeLa cells; dose 100 mcg/ml): 92% | Number of live cells after incubation, % (HeLa cells; dose 120 mcg/ml): 101% | Weight of Animal, Before Treatment (benzidine skin sarcoma): 27 ± 2 g
